# According to patent US20150148387A1, “METHODS OF TREATMENT, DIAGNOSIS AND […] METHA[…] WHICH TARGET CERAMIDE METABOLIC […] AND […] SENESCENCE” (priority 2012, published 2015):
# “Also recorded” adds a separate entry of the source. Where two headings read alike, the source gives them in different places.
# How the values were obtained:
# [1] = tested on: primary mouse embryonic fibroblasts (MEF); type: cell-based; settings: for SA-β-gal expression induced by methamphetamine: methamphetamine 1 mM; for amphetamine-induced inflammation and senescence: measured by beta-galactosidase assay, crystal violet morphology, and gene expression of pro-inflammatory and pro-senescence genes
# Method: Detection of senescence-associated β-galactosidase staining was performed as previously reported. Briefly, we plated MEFs on Lab-Tek chamber slides at a density of 5×10^4 cells per chamber. Next day, cells were treated with the indicated dose of drug for 48 hours. Cells were washed twice with PBS and fixed in 2% formaldehyde/0.2% glutaraldehyde for five minutes at room temperature. After two PBS washes the slides were incubated with fresh β-galactosidase stain solution (1 mg/mL 5-bromo-4-chloro-3-indoyl β-D-galactoside (X-Gal) 40 mM sodium phosphate, pH 6.0, 5 mM potassium ferrocyanide, 5 mM potassium ferricyanide, 150 mM NaCl, and 2 mM MgCl2) at 37° C. for 12-16 hours. Slides were washed with PBS and mounted with DAPI containing media. Images were taken for the β-gal staining and overlapped with fluorescent images taken of the same region to count the number of cells staining positive for β-gal (Nikon Eclipse E600). More than 200 cells from 5 different regions of a slide were counted in a blind fashion.
# [2] = tested on: primary mouse embryonic fibroblasts (MEF); type: cell-based; settings: for ceramide (d18:1/16:0) content: incubation of MEF with the drug alone
# Method: (§1) Cells were washed with ice-cold phosphate-buffered saline (PBS) and scraped into 0.5 ml of methanol/water (1:1, vol:vol) containing the internal standards listed below. Protein concentrations were measured using the BCA protein assay (Pierce, Rockford, Ill., USA). Lipids were extracted with chloroform/methanol (2:1, vol:vol; 1.0 mL). The organic phases were collected, dried under nitrogen and dissolved in methanol for LC/MS analyses.
# (§2) Helium was used as collision gas. […] Mobile phase composition was as described above.
# (§3) Mouse embryonic fibroblasts (MEFs) were prepared from mice embryo as previously reported. Briefly, pregnant mice at day 13 post coitum were sacrificed and the uteri were dissected out. Each embryo was separated from the placenta and the head and visceral tissues were removed. The remaining body was minced in PBS and incubated with 0.1 mM trypsin/1 mM EDTA at 37° C. for 15 min. Two volumes of Dulbecco's Modified Eagle Medium (DMEM) containing 10% fetal bovine serum (FBS) was added and stood for 5 minutes to settle down large pieces of unbroken tissues. The supernatant was then removed and centrifuged at 200×g for 5 min and suspended in fresh DMEM containing 10% FBS. Cells were cultured at 37° C. with 5% CO2.
# [3] = tested on: primary mouse embryonic fibroblasts (MEF); experiment: Gene expression in MEF; type: cell-based; settings: MEF; co-administration with methamphetamine
# Method: Total RNA was extracted from frozen tissues using TRIzol reagent (Invitrogen, Carlsbad, Calif.) and was purified with the RNeasy mini kit (Qiagen, Valencia, Calif.). First-strand complementary DNAs were synthesized using SuperScript II RNaseH reverse transcriptase (Invitrogen). Reverse transcription of total RNA (2 μg) was carried out using oligo(dT)12-18 primers for 50 min at 42° C. mRNA levels were measured by quantitative real-time polymerase chain reaction (RT-PCR) with a Mx 3000P system (Stratagene, La Jolla, Calif.). The following list of primers and fluorogenic probes purchased from Applied Biosystems (TaqMan Gene Expression Assays, Foster City, Calif.): Ceramide Synthase 1 (Rn01420081_m1), Ceramide Synthase 2 (Rn01762789_m1), Ceramide Synthase 4 (Rn01767402_m1), Ceramide Synthase 5 (Rn01532864_m1), Ceramide Synthase 6 (Rn01270930_m1), Interleukin-6 (Rn01410330_m1). mRNA levels were normalized using beta actin, 18S ribosomal protein or glyceraldehyde-3-phosphate dehydrogenase as internal standards. Additional PCR primers were designed using Primer 3 (https://www.Frodo.wit.mit.edu), and the sequences are shown in S.Table XXX.
# as §3
# [4] = tested on: isolated mitochondria from primary MEF; experiment: Lipid analysis of isolated mitochondria from MEF; type: cell-based, mouse; settings: isolated mitochondria from primary MEF; inhibitor 30 μM
# Method: as §1, §2, §3
# [5] = tested on: ceramide content and IL-6 and p21 mRNA; experiment: Acute experiment in mice: methamphetamine alone or in combination with L-CS; settings: methamphetamine in combination with L-CS
# [6] = Methamphetamine self-administration in rats: self-administration, body weight, body temperature, food intake; type: in vivo, rat
# Method: Each experimental group was divided into two subgroups that were tested simultaneously. One subgroup served as yoked controls and passively received an injection of saline (which was not contingent on responding) each time a response-contingent injection of 0.1 mg/kg methamphetamine was actively self-administered by the first subgroup of rats. […] The first experimental groups consisted of 12 rats self-administering methamphetamine and 6 yoked control rats. The second experimental group consisted of 9 rats self-administering methamphetamine and 9 yoked control rats. The third experimental group consisted of 16 rats self-administering methamphetamine and 8 yoked control rats. […] The pretreatment with L-CS was always given immediately before and after each session and the catheter was flushed with 0.5 ml of saline afterwards. Before and after sessions 4 and 5 animals received dose 10 mg/kg of L-CS and before and after sessions 6, 7, and 8 they received dose 20 mg/kg of L-CS. The animals received total dose 160 mg/kg of L-CS during the experiment. In this group, we also measured three times the rectal temperature. The first measurement was done one the day before the experiment began at 2 pm, the second measurement was done at 2 pm before the eighth session, and the third measurement immediately after the eighth session.
# Eight consecutive 15-hour sessions were conducted between 4 p.m. and 8 a.m. Rats and the food in the feeders were weighed before the start of each session. At the start of each session, a white house light was turned on and a priming injection of 0.1 mg/kg methamphetamine (or saline for yoked group), sufficient to fill the “dead” space of the IV catheter, was automatically delivered. Rats learned to self-administer methamphetamine under one-response, fixed ratio schedule (FRI) of i.v. methamphetamine injection with 30-s time-out duration. Each nose-poke response in the active hole (FRI) produced a delivery of an i.v. injection of 0.1 mg/kg of methamphetamine followed by 30-s timeout period, during which the chamber was dark and responses in either hole had no programmed consequences.
# [7] = tested on: de novo ceramide biosynthesis; experiment: Methamphetamine self-administration in rats: lipidomic analysis of tissues by LC/MS; settings: 8 days self-administration; L-CS i.v. from 4 days into the study (10 then 20 mg/kg before and after sessions)
# Method: Male Sprague-Dawley rats (Charles River, Wilmington, Mass.), weighing approximately 360-440 g at the beginning of the self-administration experiment, were individually housed in a temperature- and humidity-controlled environment under a reversed lighting 12-h light/dark cycle (lights on at 7:00 p.m.). The rats were allowed free access to food (NIH07 biscuits) in their home cage throughout the study. Water was available ad libitum in the home cage and in the testing chamber. Rats were tested in the light phase. They were experimentally and drug naïve at the beginning of this study.
# Each of eighteen standard operant-conditioning chambers (Coulbourn Instruments, Lehigh Valley, Pa.) contained a white house light and two holes with nose-poke operanda on either side of a food trough. Upon activation, each nose poke produced a brief feedback tone. […] The tubing was attached to a syringe pump (Harvard Apparatus, South Natick, Mass.), which was programmed to deliver 2-s injections. The injected volume was adjusted for every animal to deliver a methamphetamine dose of 0.1 mg/kg/injection. Experimental events were controlled by microcomputers using MED Associates interfaces and software (Med Associates Inc., East Fairfield, Vt.).
# Silastic catheter was implanted into the external jugular vein under anesthesia with a mixture of ketamine and xylazine (60 and 10 mg/kg i.p., respectively). Catheter exited the skin behind the ear. After catheter implantation, a nylon bolt glued to an acrylic mesh was implanted subcutaneously in the midscapular region. The nylon bolt served as a tether, preventing the catheter from being pulled out during self-administration sessions. Following surgery, the IV catheter was flushed daily during the first week with 0.2-0.3 ml of solution containing cephalosporin (100 mg/ml; Cefazolin For Injection, USP; Hospira Inc., Lake Forest, Ill., USA) and then flushed before and after each daily session with saline to maintain its patency) and then flushed after each daily session with saline to maintain its patency.
# Each experimental group was divided into two subgroups that were tested simultaneously. One subgroup served as yoked controls and passively received an injection of saline (which was not contingent on responding) each time a response-contingent injection of 0.1 mg/kg methamphetamine was actively self-administered by the first subgroup of rats. […] The first experimental groups consisted of 12 rats self-administering methamphetamine and 6 yoked control rats. The second experimental group consisted of 9 rats self-administering methamphetamine and 9 yoked control rats. The third experimental group consisted of 16 rats self-administering methamphetamine and 8 yoked control rats. […] The pretreatment with L-CS was always given immediately before and after each session and the catheter was flushed with 0.5 ml of saline afterwards. Before and after sessions 4 and 5 animals received dose 10 mg/kg of L-CS and before and after sessions 6, 7, and 8 they received dose 20 mg/kg of L-CS. The animals received total dose 160 mg/kg of L-CS during the experiment.
# Eight consecutive 15-hour sessions were conducted between 4 p.m. and 8 a.m. Rats and the food in the feeders were weighed before the start of each session. At the start of each session, a white house light was turned on and a priming injection of 0.1 mg/kg methamphetamine (or saline for yoked group), sufficient to fill the “dead” space of the IV catheter, was automatically delivered. Rats learned to self-administer methamphetamine under one-response, fixed ratio schedule (FRI) of i.v. methamphetamine injection with 30-s time-out duration.
# [8] = tested on: primary mouse embryonic fibroblasts (MEF); experiment: ROS production in MEF (CM-H2DCFDA); type: cell-based; settings: CYP inhibitors with methamphetamine
# Method: Production of ROS was measured using the fluorescent probe CM-H2DCFDA (Invitrogen). This carboxy derivative of fluorescein carries additional negative charges that improve its retention compared to noncarboxylated forms. For these experiments, MEFs were grown in DMEM without phenol red, for which anti-oxidative properties have been reported. Cells were plated to subconfluence in 12-well plates, washed 3 times with pre-warmed PBS and loaded for 30 min at 37° C./5% CO2 with […] CM-H2DCFDA in DMEM without phenol red (loading medium). Then the loading medium was removed and pre-warmed fresh medium containing the different CYP450 inhibitors in presence or absence of methamphetamine was added. Fluorescence (excitation at 485 nm, emission at 530 nm) was analyzed immediately, cells were incubated at 37° C./5% CO2, and fluorescence was analyzed at the indicated time points. ROS rate versus control (%) was calculated subtracting the percentage of ROS increasing from time zero in the methamphetamine-treated samples to the percentage of ROS increasing from time zero in vehicle-treated samples.
molecule,measurement,setting,value
CCCC[C@@H](C)[C@@H](OC(=O)C[C@@H](CC(=O)O)C(=O)O)[C@H](C[C@@H](C)C[C@H](O)CCCC[C@@H](O)C[C@H](O)[C@H](C)N)OC(=O)C[C@@H](CC(=O)O)C(=O)O [Fumonisin B1],expression of SA-β-gal by the cell-permeable ceramide analog C8,[1]; C8 in presence of L-CS or FB1,neither L-CS nor FB1 blocked
same,SA-β-gal expression induced by methamphetamine,[1]; inhibitor 50 μM,suppressed
CCCCc1ccc(N=CNO)c(C)c1 [HET-0016],ceramide formation in D-meth-treated cells,"[2]; MEF, inhibitors each at 10 μM",ineffective
N[C@H]1CONC1=O [L-cycloserine],expression of SA-β-gal by the cell-permeable ceramide analog C8,[1],neither L-CS nor FB1 blocked
same,amphetamine-induced inflammation and senescence,[1],prevent
same,SA-β-gal expression induced by methamphetamine,[1]; inhibitor 30 μM,suppressed
same,"methamphetamine-induced increase in the transcription of IL-6, TNF-alpha, p21 and p53",[3],blocked
same,methamphetamine induced increases in ceramide,"[2]; primary MEF, inhibitor 30 μM",able to block
same,methamphetamine induced increases in ceramide,[4],able to block
same,methamphetamine-induced increase of ceramide,[5],block the increase
same,methamphetamine-induced reduction of food intake,[6]; L-CS treatment,did not alter
same,meth induced changes in body temperature,"[6]; L-CS treatment, listed as L-CS",did not alter
same,methamphetamine self-administration,"[6]; L-CS treatment, listed as L-CS",no effect; also recorded: did not alter
same,body weight (wasting phenotype),"[6]; methamphetamine self-administering animals treated with L-CS, listed as L-CS",able to rescue the wasting phenotype; also recorded: corrected the abnormalities in body weight
same,methamphetamine induced increases in ceramide content,[7],blocked
"CN[C@@H](C)Cc1ccccc1.Cl [L-methamphetamine, L-methamphetamine hydrochloride]",ceramide (d18:1/16:0) content,[2],no such effect
CCCC(C(=O)OCCN(CC)CC)(c1ccccc1)c1ccccc1 [SKF-525A],ceramide formation in D-meth-treated cells,"[2]; MEF, inhibitors each at 10 μM",normalized
same,release of ROS evoked by methamphetamine,[8],prevented
CN/C(=N/CCSCc1nc[nH]c1C)NC#N [cimetidine],ceramide formation in D-meth-treated cells,[2],normalized
same,release of ROS evoked by methamphetamine,[8],prevented
C[C@H](N)Cc1ccccc1 [d-amphetamine],ceramide (d18:1/16:0) content,[2],modest but statistically significant (p<0.014) increase
C=C[C@H]1C[N@@]2CC[C@H]1C[C@@H]2[C@@H](O)c1ccnc2ccc(OC)cc12 [quinidine],ceramide formation in D-meth-treated cells,"[2]; MEF, inhibitors each at 10 μM",normalized
same,release of ROS evoked by methamphetamine,[8],prevented
O=C1CCC(N2C(=O)c3ccccc3C2=O)C(=O)N1 (stereo not shown) [thalidomide],amphetamine-induced inflammation and senescence,[1],prevent
TNF-α,cellular ceramide content,"[2]; MEF, TNF-α treatment activating NF-κB",mimic the effects of methamphetamine
